Assay results as given in US9783488B2 (CHDI Foundation, Inc., priority 2013, dated 2017).
pIC50: −log10 of the molar value.

Columns and labels:
[1] = test system: cellular histone deacetylase enzymatic activity in Jurkat E6-1 cells; test: Inhibition of cellular HDAC activity in Jurkat E6-1 cells, fluorogenic substrate Boc-Lys(Tfa)-AMC; type: cell-based; settings: Homo sapiens, read-out: Cell IC50
Outline: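 Jurkat E6.1 cells (75,000/well) were pre-treated with compound for 2 h at 37 °C, then given Boc-Lys(Tfa)-AMC (5× stock 500 μM) for 3 h. Cells were lysed with trypsin-containing buffer overnight, and released AMC fluorescence was read at Ex 355/Em 460 nm over a 16-point dilution series.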

[2] = target: human catalytic domain HDAC4 protein (amino acids 648-1032) (Homo sapiens (Human), UniProt P56524); test: Inhibition of HDAC4 catalytic domain enzymatic activity, fluorogenic substrate Boc-Lys(Tfa)-AMC; settings: HDAC4 catalytic domain enzyme, read-out: Biochemical HDAC4 IC50
Sequence of human catalytic domain HDAC4 protein (amino acids 648-1032) (P56524 648-1032): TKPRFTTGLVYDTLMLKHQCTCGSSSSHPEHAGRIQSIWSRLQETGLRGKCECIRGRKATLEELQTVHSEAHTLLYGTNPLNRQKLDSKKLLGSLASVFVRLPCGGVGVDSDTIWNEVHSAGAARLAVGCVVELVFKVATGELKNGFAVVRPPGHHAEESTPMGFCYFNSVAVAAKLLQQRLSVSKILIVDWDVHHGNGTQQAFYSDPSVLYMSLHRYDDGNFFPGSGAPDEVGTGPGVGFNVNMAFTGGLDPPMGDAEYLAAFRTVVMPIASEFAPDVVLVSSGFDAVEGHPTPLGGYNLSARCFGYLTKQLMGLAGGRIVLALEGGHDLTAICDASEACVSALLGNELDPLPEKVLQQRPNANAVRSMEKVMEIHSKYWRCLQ

| SMILES | pIC50 [1] | pIC50 [2] |
| --- | --- | --- |
| Cc1c(F)cccc1[C@]1(C(=O)NO)CC[C@H](Oc2ccc3cnn(C)c3c2)C1 [Example 92, (1S,3S)-1-(3-Fluoro-2-methylphenyl)-N-hydroxy-3-((1-methyl-1H-indazol-6-yl)oxy)cyclopentanecarboxamide] | 6.33 | 6.85 |
| Cc1c(F)cccc1[C@]1(C(=O)NO)CC[C@@H](Oc2cncc(F)c2)C1 [Example 93, (1S,3R)-1-(3-fluoro-2-methylphenyl)-3-((5-fluoropyridin-3-yl)oxy)-N-hydroxycyclopentanecarboxamide] | 5.72 | 6.70 |
| Cc1c(F)cccc1[C@]1(C(=O)NO)CC[C@H](Oc2cncc(F)c2)C1 [Example 94, (1S,3S)-1-(3-fluoro-2-methylphenyl)-3-((5-fluoropyridin-3-yl)oxy)-N-hydroxycyclopentanecarboxamide] | 6.08 | 6.80 |
| Cc1c(F)cccc1[C@]1(C(=O)NO)CC[C@@H](Oc2ccccc2)C1 [Example 95, (1S,3R)-1-(3-fluoro-2-methylphenyl)-N-hydroxy-3-phenoxycyclopentanecarboxamide] | 5.82 | 6.80 |
| Cc1c(F)cccc1[C@]1(C(=O)NO)CC[C@H](Oc2ccccc2)C1 [Example 96, (1S,3S)-1-(3-fluoro-2-methylphenyl)-N-hydroxy-3-phenoxycyclopentanecarboxamide] | 6.59 | 6.89 |
| Cc1c(F)cccc1[C@]1(C(=O)NO)CC[C@H](OCc2ccc(F)cc2)C1 [Example 97, (1S,3S)-1-(3-fluoro-2-methylphenyl)-3-((4-fluorobenzyl)oxy)-N-hydroxycyclopentanecarboxamide] | 6.18 | 6.62 |
| O=C(NO)C1(c2ccccc2)CCCCC1 [Example 98, 1-phenyl-N-hydroxycyclohexylcarboxamide] | < 4.30 | < 4.30 |
| Cc1c(F)cccc1[C@]1(C(=O)NO)CC[C@H](c2cncc(F)c2)CC1 [Example 99, (1r,4r)-1-(3-fluoro-2-methylphenyl)-4-(5-fluoropyridin-3-yl)-N-hydroxycyclohexanecarboxamide] | 4.42 | 5.39 |
| Cc1c(F)cccc1[C@]1(C(=O)NO)CC[C@@H](c2cncc(F)c2)CC1 [Example 100, (1s,4s)-1-(3-Fluoro-2-methylphenyl)-4-(5-fluoropyridin-3-yl)-N-hydroxycyclohexanecarboxamide] | 6.43 | 6.18 |
| Cc1c(F)cccc1[C@]1(C(=O)NO)CC[C@H](Oc2ccccc2)CC1 [Example 101, (1r,4r)-1-(3-fluoro-2-methylphenyl)-N-hydroxy-4-phenoxycyclohexanecarboxamide] | 6.27 | 6.17 |
| Cc1c(F)cccc1[C@]1(C(=O)NO)CC[C@@H](OCc2ccc(F)cc2)CC1 [Example 102, (1s,4s)-1-(3-fluoro-2-methylphenyl)-4-((4-fluorobenzyl)oxy)-N-hydroxycyclohexanecarboxamide] | 4.31 | 4.85 |
| Cc1c(F)cccc1[C@]1(C(=O)NO)CC[C@@H](c2ccc3cnn(C)c3c2)CC1 [Example 103, (1s,4s)-1-(3-fluoro-2-methylphenyl)-N-hydroxy-4-(1-methyl-1H-indazol-6-yl)cyclohexanecarboxamide] | 4.59 | 5.38 |
| Cc1c(F)cccc1[C@]1(C(=O)NO)CC[C@H](c2ccc3cnn(C)c3c2)CC1 [Example 104, (1r,4r)-1-(3-fluoro-2-methylphenyl)-N-hydroxy-4-(1-methyl-1H-indazol-6-yl)cyclohexanecarboxamide] | 6.19 | 6.02 |
| O=C(NO)C1(c2ccccc2)CCCCCC1 [Example 106, N-hydroxy-1-phenylcycloheptanecarboxamide] | 4.39 | 5.16 |
| Cc1c(F)cccc1C1(C(=O)NO)CCCCCC1 [Example 107, 1-(3-Fluoro-2-methylphenyl)-N-hydroxycycloheptanecarboxamide] | < 4.30 | < 4.30 |
